Patent publication US5372944A, “Method for conversion of halogenated hydrocarbons to halohydrins” (The Dow Chemical Company, priority 1993, dated 1994)

Experiments:
[1] = biological target: partially purified TDTM-003 dehalogenase (Rhodococcus sp. TDTM0003, UniProt P59336); assay: Substrate profile of partially purified TDTM-003 dehalogenase; type: biochemical, Rhodococcus species TDTM-003; details: corrected for non-enzymatic hydrolysis
Protocol: (§1) Hydrolytic dehalogenase enzyme activity was evaluated by adding an appropriate amount of cell free extract or enzyme preparation to 5.0 mL of 100 mM glycine buffer, pH=9.0 in a 7 mL glass vial. The halogenated substrate (5.0 μl) and a small stir bar were added, and the vial capped. Reaction was initiated by transfer to a 30° C. water bath equipped with a magnetic stirrer. Periodically 1.0 mL samples were removed and assayed for free halide. Rates were determined after correcting for non-enzymatic hydrolysis with an appropriate blank. A standard curve was prepared using sodium chloride.
Frozen pellets from 2 liters of culture were thawed into 150 mL of 10 mM Tris sulfate buffer, pH=7.5 containing 1 mM disodium EDTA. This buffer was used throughout the entire purification. The suspension was sonicated for approximately 1 hour with ice cooling using a Microson Ultrasonic Cell Disrupter and centrifuged at 10,000 rpm for 15 minutes to remove cell debris. Supernatant was removed and the sonication/centrifugation repeated with fresh buffer to increase enzyme yield. Overall sonication efficiency was monitored by absorbence at 280 nm. Cell free extracts were combined and brought slowly to 30 percent saturation with solid ammonium sulfate. The suspension was centrifuged at 10,000 rpm for 30 minutes and the pellet discarded. The supernatant was brought to 70 percent saturation with solid ammonium sulfate and centrifugation repeated. Supernatant was discarded and the pellet taken up in a small volume of buffer and dialyzed overnight against 1 liter of the same. The preparation was applied to a 1.5×15cm column of DEAE-Sephadex equilibrated with the same buffer elution carried out with a 1 liter gradient from 0 to 400 mM ammonium sulfate. Fractions of about 7-8 mLs were collected. The active fractions were pooled and brought to 90 percent saturation with ammonium sulfate. The pellet was taken up in a minimal amount of buffer, ultrafiltered to 2.5 mL using 10,000 MWCO Novacell Ultrafiltration cell, and applied to a 1.5×90 cm Sephadex G-100 column. Elution was by gravity at 90 cm and fractions of 7-8 mLs were collected. Active fractions were poled, brought to 30 percent saturation with ammonium sulfate, and applied to a 10 ml column of Butyl-agarose equilibrated in the same. Elution was performed with a 500 mL gradient from 30 percent-0 percent ammonium sulfate. Active fractions were pooled, dialyzed and used for substrate selectivity studies.
To evaluate the substrate selectivity of haloalkane dehalogenase from isolated Rhodococcus species, an enzyme preparation from the strain designated TDTM-003 was purified by the procedure described under General Experimental. This preparation provided a dehalogenase which was approximately 50 percent pure as estimated by SDS-PAGE and was free of interfering halohydrin dehalogenase activity.
The activity of this partially purified TDTM-003 dehalogenase preparation was evaluated against various chlorinated and brominated substrates. Each enzymatic rate was corrected for non-enzymatic hydroloysis.

[2] = test system: dehalogenase in cell free extracts of Rhodococcus Rhodochrous, TDTM-003; assay: Primary screen of dehalogenase activity in cell free extracts of TDTM-003; type: biochemical
Protocol: Following overnight growth, 50 μl of 1-chlorobutane was added to induce the dehalogenase. After 24 hours induction, cells were harvested by centrifugation, resuspended in cold 10mM Tris sulfate/1 mM disodium EDTA, pH=7.5, and disrupted by sonication. Cell debris was removed by centrifugation at 10,000 rpm for 30 minutes, cell free extracts dialyzed overnight against the same buffer, and assayed without dilution for dehalogenase activity.
Free chloride or bromide was assayed qualitatively using a chloride electrode (Orion), or quantitatively using the colorimetric method (430 nm) described by J. G. Bergmann, et al., Anal. Chem., 29:241-243 (1957).
as §1
Preliminary studies were performed on cell free extracts of TDTM-003 to evaluate the enzyme substrate selectivity, and the results of this study are shown in Table 2.

TDTM-003 = assay: Utilization of carbon containing compounds for growth in liquid culture, TDTM-003; type: cell-based, Rhodococcus species; details: liquid culture
TDTM-003-60-2-11 [3] = assay: Utilization of carbon containing compounds for growth in liquid culture, TDTM-003-60-2-11; type: cell-based, Rhodococcus species ATCC 55388;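 also: minus means no visible growth and plus means good growth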
Description: A representative double mutant designated TDTM-003-60-2-11, made by the above example was deposited at the American Type Culture Collection on Jan. 28, 1993 and given the ATCC designation 55388.

TDTM-003-60-2-11 [4] = assay: Dehalogenation by double mutant strain TDTM-003-60-2-11 in shake flask with bulb feeder; type: cell-based, Rhodococcus sp.; details: after 120 hours
Description: For gas chromatography (GC) analysis of halogenated metabolites, cultures were centrifuged briefly to remove cells, saturated with sodium sulfate, and an equivalent volume of methylene chloride added. The suspension was vortexed vigorously, centrifuged to break the emulsion and the methylene chloride phase removed.
Analysis of all halocarbon substrates and products from culture broths was done by GC using a Hewlett Packard 5710 equipped with a 7671A Autoinjector with the following protocol:
Dehalogenation of 1,2-dichloropropane by the double mutant strain of Rhodococcus sp., designated TDTM-003-60-2-11 was assayed in the following manner: 5 mL of an overnight culture (16 hours) were used as inoculum for 50 mL MM1X4P containing 5 g/L disodium succinate in a 250 mL flask. At 4 and 8 hours growth, 10 μL of 1-chlorobutane was added to induce the dehalogenase enzyme. Following 24 hours of growth, cells were harvested by centrifugation, resuspended into 50 mL of fresh MM1X4P, and transferred to a sterile 250 mL shake flask equipped with a bulb feeder. To the bulb feeder was added 1,2-dichloropropane and incubation continued at 28° C. and 150 rpm. […] The production of halohydrin products was monitored by gas chromatography. 1 -Chloro-2-propanol and 2-chloro-1-propanol accumulate linearly in the culture broth to 74 parts-per-million (ppm) (w/v) and 20 ppm (w/v) respectively after 120 hours. The overall rate of halohydrin production is 0.60 mg/g dry cells/hr.
The procedure described in Example 6 was followed except 1,2-dichlorobutanereplaced 1-chlorobutane in the bulb feeder.
The procedure described in Example 6 was followed except 1,2,3-trichloropropane replaced 1-chlorobutane in the bulb feeder.

Sequence of partially purified TDTM-003 dehalogenase (P59336 whole entry): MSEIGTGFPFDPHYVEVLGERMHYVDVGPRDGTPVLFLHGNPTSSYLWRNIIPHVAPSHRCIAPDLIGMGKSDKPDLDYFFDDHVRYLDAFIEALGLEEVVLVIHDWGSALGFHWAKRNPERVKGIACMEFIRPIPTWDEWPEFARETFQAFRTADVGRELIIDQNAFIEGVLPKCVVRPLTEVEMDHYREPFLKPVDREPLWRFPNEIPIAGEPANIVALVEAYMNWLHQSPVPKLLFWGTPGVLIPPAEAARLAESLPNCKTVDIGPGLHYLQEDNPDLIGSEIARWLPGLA

Compound | Relative Rate of Halogen Release, 1-Chlorobutane = 100 [1] | Relative Rate of Chloride Release, 1-chlorobutane = 100 [2] | further results
CCC(Br)CBr (stereo not drawn) [1,2-dibromobutane] | 756.000 |  | 
BrCCBr [1,2-dibromoethane] | 1318.000 |  | 
CC(Br)CBr (stereo not drawn) [1,2-dibromopropane] | 900.000 |  | 
CC(C)(Cl)CCl [1,2-dichloro-2-methylpropane] | 0.000 | 300 | 
ClCCCl [1,2-dichloroethane] | 4.400 | 2.8 | 
CC(Br)CCBr (stereo not drawn) [1,3-dibromobutane] | 155.000 |  | 
BrCCCBr [1,3-dibromopropane] | 771.000 |  | 
OC(CCl)CCl [1,3-dichloro-2-propane] |  |  | Utilization of carbon source for growth, TDTM-003 (TDTM-003): +/-; Utilization of carbon source for growth, TDTM-003-60-2-11 (TDTM-003-60-2-11 [3]): -
CC(Cl)CCCl (stereo not drawn) [1,3-dichlorobutane] | 81.000 | 63 | 
ClCCCCl [1,3-dichloropropane] | 253.000 | 203 | 
BrCCCCBr [1,4-dibromobutane] | 294.000 |  | 
ClCCCCCl [1,4-dichlorobutane] | 261.000 | 178 | 
ClCCCCCCl [1,5-dichloropentane] | 173.000 | 112 | 
BrCCCCCCBr [1,6-dibromohexane] | 244.000 |  | 
ClCCCCCCCl [1,6-dichlorohexane] | 252.000 | 169 | 
BrCCCCCCCCBr [1,8-dibromooctane] | 173.000 |  | 
ClCCCCCCCCCCCl [1,10-dichlorodecane] | 52.000 | 124 | 
CCC(O)CCl (stereo not drawn) [1-Chloro-2-butanol] |  |  | halohydrin accumulated in culture broth (TDTM-003-60-2-11 [4]; substrate 1,2-dichlorobutane): 6.5 ppm (w/v)
ClCCBr [1-bromo-2-chloroethane] | 751.000 |  | 
CCCCBr [1-bromobutane] | 265.000 | 362 | 
CCCCCCCCCCBr [1-bromodecane] | 98.000 |  | 
CCCCCCBr [1-bromohexane] | 162.000 |  | 
CCCCCCCCBr [1-bromooctane] | 414.000 |  | 
CCCCCBr [1-bromopentane] | 203.000 |  | 
CCCBr [1-bromopropane] | 459.000 |  | 
CC(C)CCl [1-chloro-2-methylpropane] |  | 117 | 
CC(O)CCl (stereo not drawn) [1-chloro-2-propanol] |  |  | halohydrin accumulated in culture broth (TDTM-003-60-2-11 [4]; substrate 1,2-dichloropropane): 74 ppm (w/v)
CCCCCl [1-chlorobutane] | 100.000 | 100 | 

Compound | Relative Rate of Halogen Release, 1-Chlorobutane = 100 [1] | Relative Rate of Chloride Release, 1-chlorobutane = 100 [2] | further results
CCCCCCCCCCCl [1-chlorodecane] | 28.000 |  | 
CCCCCCCCl [1-chloroheptane] | 130.000 |  | 
CCCCCCCl [1-chlorohexane] | 119.000 | 136 | 
CCCCCCCCCl [1-chlorooctane] | 58.000 | 159 | 
CCCCCCl [1-chloropentane] | 81.000 | 109 | 
CCCCl [1-chloropropane] | 33.000 | 57 | 
CC(C)(Cl)Cl [2,2-dichloropropane] | 23.000 |  | 
CC(Br)C(C)Br (stereo not drawn) [2,3-dibromobutane] | 846.000 |  | 
OCC(Cl)CCl (stereo not drawn) [2,3-dichloro-1-propane] |  |  | Utilization of carbon source for growth, TDTM-003 (TDTM-003): + /-; Utilization of carbon source for growth, TDTM-003-60-2-11 (TDTM-003-60-2-11 [3]): -
OCC(Cl)CCl (stereo not drawn) [2,3-dichloro-1-propanol] |  |  | halohydrin accumulated in culture broth (TDTM-003-60-2-11 [4]; substrate 1,2,3-trichloropropane): 211 ppm (w/v)
CC(Cl)C(C)Cl (stereo not drawn) [2,3-dichlorobutane] | 19.000 | 73 | 
CC(C)Br [2-Bromopropane] | 55.000 |  | 
CCC(C)Br (stereo not drawn) [2-bromobutane] | 123.000 |  | 
CCC(Cl)CO (stereo not drawn) [2-chloro-1-butanol] |  |  | halohydrin accumulated in culture broth (TDTM-003-60-2-11 [4]; substrate 1,2-dichlorobutane): 265 ppm (w/v)
CC(Cl)CO (stereo not drawn) [2-chloro-1-propanol] |  |  | halohydrin accumulated in culture broth (TDTM-003-60-2-11 [4]; substrate 1,2-dichloropropane): 20 ppm (w/v)
CC(C)(C)Cl [2-chloro-2-methylpropane] |  | 2917 | 
CCC(C)Cl (stereo not drawn) [2-chlorobutane] | 20.000 | 65 | 
CCC(N)C(=O)O (stereo not drawn) [Aminobutyrate] |  |  | Utilization of carbon source for growth, TDTM-003 (TDTM-003): +; Utilization of carbon source for growth, TDTM-003-60-2-11 (TDTM-003-60-2-11 [3]): +
O=C(O)[C@H](O)[C@@H](O)[C@H](O)[C@H](O)CO [Gluconate] |  |  | Utilization of carbon source for growth, TDTM-003 (TDTM-003): ++; Utilization of carbon source for growth, TDTM-003-60-2-11 (TDTM-003-60-2-11 [3]): ++
O=C[C@H](O)[C@@H](O)[C@H](O)[C@H](O)CO [Glucose] |  |  | Utilization of carbon source for growth, TDTM-003-60-2-11 (TDTM-003-60-2-11 [3]): + +
ClC1CCCCC1 [chlorocyclohexane] | 7.500 |  | 
O=C(O)c1cccc(O)c1 [m-OH Benz] |  |  | Utilization of carbon source for growth, TDTM-003 (TDTM-003): -; Utilization of carbon source for growth, TDTM-003-60-2-11 (TDTM-003-60-2-11 [3]): -
O=C(O)c1ccc(O)cc1 [p-OH-Benz] |  |  | Utilization of carbon source for growth, TDTM-003 (TDTM-003): -; Utilization of carbon source for growth, TDTM-003-60-2-11 (TDTM-003-60-2-11 [3]): -
Dextrin |  |  | Utilization of carbon source for growth, TDTM-003 (TDTM-003): -; Utilization of carbon source for growth, TDTM-003-60-2-11 (TDTM-003-60-2-11 [3]): -
Glycogen |  |  | Utilization of carbon source for growth, TDTM-003 (TDTM-003): +; Utilization of carbon source for growth, TDTM-003-60-2-11 (TDTM-003-60-2-11 [3]): +
Inulin |  |  | Utilization of carbon source for growth, TDTM-003 (TDTM-003): -; Utilization of carbon source for growth, TDTM-003-60-2-11 (TDTM-003-60-2-11 [3]): -
Phenylacetate |  |  | Utilization of carbon source for growth, TDTM-003 (TDTM-003): +; Utilization of carbon source for growth, TDTM-003-60-2-11 (TDTM-003-60-2-11 [3]): -
